Experimental data published in ChEMBL document CHEMBL1201862, “PubChem BioAssay data set” (2004).
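Values below derive from 48-hour exposures of cells grown in 96-well plates, with endpoints linearly interpolated between the two concentrations bracketing the appropriate inhibition level. At the GI50, growth is halved.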 Activity calls are given as the source filed them. Cut-off read from the data, not from the text of the source: active = GI50 up to about 1.1 µM and inactive = higher.

Legend:
Assay in all cases: DTP human tumour cell line panel, 48 h
[1] = system: ACHN
[2] = system: DU-145
[3] = system: SK-OV-3
[4] = system: BT-549
[5] = system: U-251
[6] = system: PC-3
[7] = system: K562
[8] = system: OVCAR-4
[9] = system: LOX IMVI
[10] = system: SK-MEL-5
[11] = system: OVCAR-5
[12] = system: HL-60
[13] = system: A549
[14] = system: KM12
[15] = system: M14
[16] = system: CCRF-CEM
[17] = system: SF-539
[18] = system: SR
[19] = system: SNB-75
[20] = system: RPMI-8226

| SMILES | GI50 [1] | GI50 [2] | GI50 [3] | GI50 [4] | GI50 [5] | GI50 [6] | GI50 [7] | GI50 [8] | GI50 [9] | GI50 [10] | GI50 [11] | GI50 [12] | GI50 [13] | GI50 [14] | GI50 [15] | GI50 [16] | GI50 [17] | GI50 [18] | GI50 [19] | GI50 [20] |
| --- | --- | --- | --- | --- | --- | --- | --- | --- | --- | --- | --- | --- | --- | --- | --- | --- | --- | --- | --- | --- |
| COc1ccc(/C=N/NC(=O)c2ccc(O)c(CN(C)C)c2)cc1 | > 100 µM (inactive) | > 100 µM (inactive) | > 100 µM (inactive) | > 100 µM (inactive) | > 100 µM (inactive) | > 100 µM (inactive) | > 100 µM (inactive) | > 100 µM (inactive) | > 100 µM (inactive) | > 100 µM (inactive) | > 100 µM (inactive) | > 100 µM (inactive) | > 100 µM (inactive) | > 100 µM (inactive) | > 100 µM (inactive) | > 100 µM (inactive) | > 100 µM (inactive) | > 100 µM (inactive) |  |  |
| CCOC(=O)NNC(=O)NCCCCNC(=O)NNC(=O)OCC | > 100 µM (inactive) | > 100 µM (inactive) | > 100 µM (inactive) | > 100 µM (inactive) | > 100 µM (inactive) | > 100 µM (inactive) | > 100 µM (inactive) |  | > 100 µM (inactive) | > 100 µM (inactive) | > 100 µM (inactive) | > 100 µM (inactive) | > 100 µM (inactive) | 98.2 µM (inactive) | > 100 µM (inactive) | > 100 µM (inactive) | > 100 µM (inactive) |  | 0.458 µM (active) | > 100 µM (inactive) |
| CC(=O)OCCCC(NC(=O)OC(C)(C)C)C(=O)NC(CCCOC(C)=O)C(=O)NC(Cc1ccc([N+](=O)[O-])cc1)C(=O)NCC(=O)OCc1ccccc1 (centres undefined) | 17.4 µM (inactive) | 16.4 µM (inactive) | 26.1 µM (inactive) | 18.5 µM (inactive) | 18.4 µM (inactive) | 17.2 µM (inactive) | 23.7 µM (inactive) | 12.3 µM (inactive) | 13.1 µM (inactive) | 16.4 µM (inactive) | 15.8 µM (inactive) | 3.15 µM (inactive) | 20.3 µM (inactive) | 15.6 µM (inactive) | 12.9 µM (inactive) | 29.7 µM (inactive) | 15.3 µM (inactive) | 15.6 µM (inactive) |  | 19.9 µM (inactive) |
| CC(C)(C)[Si](C)(C)OCC1OC(n2cnc3c(N)ncnc32)C2OC(=S)OC12 (centres undefined) |  | 25.1 µM (inactive) | 19.5 µM (inactive) | 25.1 µM (inactive) | 25.2 µM (inactive) | 22 µM (inactive) | 4.84 µM (inactive) | 81.3 µM (inactive) | 28.7 µM (inactive) | 17 µM (inactive) | 26.7 µM (inactive) | > 100 µM (inactive) |  | 35 µM (inactive) | 45.5 µM (inactive) | 12.7 µM (inactive) |  | 38.5 µM (inactive) | 29.3 µM (inactive) | 37.9 µM (inactive) |
| Cc1cc(C)c2c(n1)S(=O)(=O)N(CCCN1CCN(c3cccc(C(F)(F)F)c3)CC1)C(C(=O)c1ccc(Cl)cc1)=C2O | 3.48 µM (inactive) | 4.67 µM (inactive) | 5.81 µM (inactive) | 6.1 µM (inactive) | 2.65 µM (inactive) | 2.88 µM (inactive) | 2.2 µM (inactive) | 3.06 µM (inactive) | 0.515 µM (active) | 2.22 µM (inactive) | 4.71 µM (inactive) | 1.87 µM (inactive) | 2.74 µM (inactive) | 3.58 µM (inactive) | 2.65 µM (inactive) | 8.15 µM (inactive) | 3.84 µM (inactive) | 0.507 µM (active) | 2.81 µM (inactive) |  |
| C=C(NC(=O)C(=C)NC(=O)c1csc(C2=NC3c4csc(n4)C4NC(=O)c5csc(n5)C(C(C)(O)C(C)O)NC(=O)C5CSC(=N5)/C(=C/C)NC(=O)C(C(C)O)NC(=O)c5csc(n5)C3(CC2)NC(=O)C(C)NC(=O)C(=C)NC(=O)C(=C)NC(=O)C(C(C)C)NC2C=Cc3c(C(C)O)cc(nc3C2O)C(=O)OC4C)n1)C(N)=O (centres undefined) | 2.59 µM (inactive) | 20.9 µM (inactive) | 19.6 µM (inactive) | 2.37 µM (inactive) | 0.877 µM (active) | 6.89 µM (inactive) | 0.774 µM (active) | > 52.4 µM (inactive) | 0.357 µM (active) | 1.29 µM (inactive) | 4.09 µM (inactive) | 2.24 µM (inactive) | 5.42 µM (inactive) | 2.66 µM (inactive) | 2.62 µM (inactive) | 0.25 µM (active) | 0.34 µM (active) |  | > 30.2 µM (inactive) | 1.29 µM (inactive) |
| Nc1c(C(=O)c2ccccc2)nnc2ccccc12 | 24.8 µM (inactive) | 23.4 µM (inactive) |  | 18.7 µM (inactive) | 34.5 µM (inactive) | 24.8 µM (inactive) | 30.8 µM (inactive) | 29.8 µM (inactive) | 32.4 µM (inactive) | 16.7 µM (inactive) | 36.5 µM (inactive) | < 0.01 µM (active) | 37.3 µM (inactive) | 20.4 µM (inactive) | 39.3 µM (inactive) |  | 27.4 µM (inactive) | 38.4 µM (inactive) |  | 33.7 µM (inactive) |
| Cc1ccc2c(c1C)CC1(Cc3c(ccc4c3CCC4)C1=O)C2=O (centres undefined) | > 100 µM (inactive) | > 100 µM (inactive) | > 100 µM (inactive) | > 100 µM (inactive) | > 100 µM (inactive) | 62.2 µM (inactive) | > 100 µM (inactive) | > 100 µM (inactive) |  | > 100 µM (inactive) | > 100 µM (inactive) | > 100 µM (inactive) | > 100 µM (inactive) | > 100 µM (inactive) | 52.4 µM (inactive) | > 100 µM (inactive) | 0.652 µM (active) |  | 51.6 µM (inactive) | > 100 µM (inactive) |
| CCC1(O)CC(CCN(Cc2ccccc2)C(=O)OCc2ccccc2)C(OCc2ccccc2)C1O (centres undefined) | 17 µM (inactive) | 18.5 µM (inactive) | 17.4 µM (inactive) | 13 µM (inactive) | 27.9 µM (inactive) | 10.7 µM (inactive) | 4.69 µM (inactive) | 7.66 µM (inactive) | 21.9 µM (inactive) | 15.1 µM (inactive) | 17.7 µM (inactive) |  | 9.93 µM (inactive) | 12.7 µM (inactive) | 15.5 µM (inactive) | 16.1 µM (inactive) |  | 12.2 µM (inactive) | 12.5 µM (inactive) |  |
| COc1ccc(/N=C2/SC(=N/N=c3\sc4ccccc4n3C)S/C2=N/c2ccc(OC)cc2)cc1 | 36.8 µM (inactive) | > 100 µM (inactive) | 76.7 µM (inactive) | 67.9 µM (inactive) | 55.5 µM (inactive) | > 100 µM (inactive) | 2.92 µM (inactive) |  |  | 98.9 µM (inactive) | > 100 µM (inactive) |  | 20.4 µM (inactive) | > 100 µM (inactive) | > 100 µM (inactive) |  | > 100 µM (inactive) | > 100 µM (inactive) | 24.6 µM (inactive) | > 100 µM (inactive) |
| ClC1=NN=C(c2c[nH]c3ccccc23)CC1NCc1ccccc1 (centres undefined) | > 100 µM (inactive) | > 100 µM (inactive) | > 100 µM (inactive) | > 100 µM (inactive) | > 100 µM (inactive) | > 100 µM (inactive) | > 100 µM (inactive) |  | > 100 µM (inactive) | > 100 µM (inactive) | > 100 µM (inactive) | > 100 µM (inactive) | > 100 µM (inactive) | > 100 µM (inactive) | > 100 µM (inactive) | > 100 µM (inactive) | > 100 µM (inactive) |  | > 100 µM (inactive) | > 100 µM (inactive) |
| CN(CC(=O)N1CC(CCl)c2ccc([N+](=O)[O-])cc21)CC(=O)N1CC(CCl)c2ccc([N+](=O)[O-])cc21 (centres undefined) | > 100 µM (inactive) | > 100 µM (inactive) | > 100 µM (inactive) | > 100 µM (inactive) | > 100 µM (inactive) | > 100 µM (inactive) | > 100 µM (inactive) |  | > 100 µM (inactive) | 98.9 µM (inactive) | > 100 µM (inactive) | > 100 µM (inactive) | > 100 µM (inactive) | > 100 µM (inactive) | > 100 µM (inactive) | > 100 µM (inactive) | > 100 µM (inactive) |  | > 100 µM (inactive) | 95.9 µM (inactive) |
| CCCCCCCCCCCCCCCCCCNc1ccn(C2OC(COP(=O)(O)OCC3OC(n4cc(C)c(=O)[nH]c4=O)CC3O)C(O)C2O)c(=O)n1 (centres undefined) | 21.1 µM (inactive) | 17.8 µM (inactive) | 17.1 µM (inactive) | 14.7 µM (inactive) | 18.9 µM (inactive) | 3.1 µM (inactive) | 19.8 µM (inactive) | 15.1 µM (inactive) | 17.7 µM (inactive) | 14.9 µM (inactive) | 14.8 µM (inactive) |  | 17.8 µM (inactive) | 18.3 µM (inactive) | 17 µM (inactive) | 10.4 µM (inactive) | 17.3 µM (inactive) | 11.9 µM (inactive) | 17.5 µM (inactive) | 16.1 µM (inactive) |
| CC(C)(CC1(C)NC(=O)NC1=O)OCc1ccccc1 (centres undefined) | > 100 µM (inactive) | > 100 µM (inactive) | > 100 µM (inactive) | > 100 µM (inactive) | > 100 µM (inactive) | > 100 µM (inactive) | > 100 µM (inactive) | > 100 µM (inactive) | > 100 µM (inactive) | > 100 µM (inactive) | > 100 µM (inactive) | < 0.01 µM (active) | > 100 µM (inactive) | > 100 µM (inactive) | > 100 µM (inactive) |  |  | > 100 µM (inactive) | > 100 µM (inactive) | > 100 µM (inactive) |
| Cc1ccc(OCC2OC(C#N)C(Oc3ccc(C)cc3)C2Oc2ccc(C)cc2)cc1 (centres undefined) |  | > 100 µM (inactive) | > 100 µM (inactive) | > 100 µM (inactive) | > 100 µM (inactive) | > 100 µM (inactive) | > 100 µM (inactive) | > 100 µM (inactive) |  | > 100 µM (inactive) | > 100 µM (inactive) | > 100 µM (inactive) | > 100 µM (inactive) | > 100 µM (inactive) | > 100 µM (inactive) | > 100 µM (inactive) | > 100 µM (inactive) | > 100 µM (inactive) | 6.79 µM (inactive) | > 100 µM (inactive) |
